Where “and” joins values, the source holds several entries; their conditions need not be identical. Equal entries are not always repeated. Where two headings read alike, the source gives them in different places.
Experiments:
primary hTM cells [1] = assay: CellTox Green cytotoxicity assay in hTM cells; format: cell-based; conditions: 24 h, 48 h, 72 h
Excerpt: Commercially available RealTime-Glo™ MT cell viability (Promega, catalog #G9712) and CellTox™ Green cytotoxicity (Promega, catalog #G8731) assays were used in assessing effect of compounds on primary hTM cell viability and cytotoxicity. The RealTime-Glo™ MT cell viability assay is a nonlytic, homogeneous, bioluminescent method that determines the number of viable cells in culture by measuring the reducing potential of cells and thus metabolism (MT). Viable cells reduce the proprietary pro-substrate to generate a substrate for NanoLuc® luciferase. This substrate diffuses from cells into the surrounding culture medium, where it is rapidly used by the NanoLuc® Enzyme to produce a luminescent signal. In a contrasting and complementary manner, CellTox™ Green cytotoxicity assay measures changes in membrane integrity that occur as a result of cell death. This assay system uses a proprietary asymmetric cyanine dye that is excluded from viable cells but preferentially stains the dead cells' DNA. […]
Human™ cells were cultured and maintained as described in Example 12. […] Light emitted by luciferase and fluorescence emitted by dye binding to DNA (excitation 485 nm and emission 525 nm) were measured at 24 h, 48 h, and 72 h after incubation using plate based luminescence and fluorescence plate readers.

primary hTM cells [2] = assay: RealTime-Glo MT cell viability assay in hTM cells; format: cell-based; conditions: for Cell viability compared to DMSO controls: 30 uM and 10 μm; for Cell viability: 3.33 μm
Excerpt: Commercially available RealTime-Glo™ MT cell viability (Promega, catalog #G9712) and CellTox™ Green cytotoxicity (Promega, catalog #G8731) assays were used in assessing effect of compounds on primary hTM cell viability and cytotoxicity. The RealTime-Glo™ MT cell viability assay is a nonlytic, homogeneous, bioluminescent method that determines the number of viable cells in culture by measuring the reducing potential of cells and thus metabolism (MT). Viable cells reduce the proprietary pro-substrate to generate a substrate for NanoLuc® luciferase. This substrate diffuses from cells into the surrounding culture medium, where it is rapidly used by the NanoLuc® Enzyme to produce a luminescent signal. In a contrasting and complementary manner, CellTox™ Green cytotoxicity assay measures changes in membrane integrity that occur as a result of cell death. This assay system uses a proprietary asymmetric cyanine dye that is excluded from viable cells but preferentially stains the dead cells' DNA. The fluorescent signal produced by the dye binding to the dead-cell DNA is proportional to cytotoxicity.
Human™ cells were cultured and maintained as described in Example 12. Fifty μl cells (600 cells) in culture media containing compound, 25 μl media with RealTime-Glo™ MT cell viability assay reagent and 25 μl media with CellTox™ Green cytotoxicity assay reagent were plated in black, clear bottom 96-well plates. Light emitted by luciferase and fluorescence emitted by dye binding to DNA (excitation 485 nm and emission 525 nm) were measured at 24 h, 48 h, and 72 h after incubation using plate based luminescence and fluorescence plate readers.

Solubility in saline = format: physicochemical
HEK293 cells = assay: CellTiter-Glo Luminescent Cell Viability Assay; conditions: HEK293 cells, two days
Procedure: We used CellTiter-Glo® Luminescent Cell Viability Assay (Promega, cat #G7573) to determine the number of viable cells in culture based on quantitation of the ATP present, which signals the presence of metabolically active cells. • 1. Prepared HEK293 suspension culture cells (ThermoFisher, cat #A14635) and added 50 μl cells in media (12,500 cells) to each well of a white, opaque-walled 96-well plate in triplicate. • 2. […] Incubated at 37° C. and 5% CO2 for two days. • 4. Added 100 μl of CellTiter-Glo® Reagent to each well and mix contents for 2 minutes on an orbital shaker to induce cell lysis. • 5. Recorded luminescence using a plate luminometer.

[3] = test system: New Zealand White rabbits; conditions: 0.1 ml of 5 mg/ml
Excerpt: The right eye that was not treated served as the control. […] The eyes of initial and confirmatory test animals were examined with slit lamp for ocular lesions. […] The animals were also observed for clinical signs of toxicity, morbidity and mortality.

hTM cells = assay: hTM cell morphology changes (microscopy); conditions: for hTM cell morphology: 20 hours
Phospho-MYPT1 Thr853 = assay: Inhibition of MYPT1 phosphorylation in human trabecular meshwork (hTM) cells, western blot
Procedure: The outflow of aqueous humor across the trabecular meshwork (TM) is regulated by, among other factors, actomyosin contraction of the TM cells and altered extracellular matrix. ROCK is known to inhibit the phosphatase activity of myosin light chain phosphatase (MLCP) by phosphorylating MYPT1 at amino acids Thr696 and Thr853. […] Media with inhibitors was suctioned off, wells washed 2 times with cold PBS pH 7.4 buffer, and attached cells were scrapped off with 500 μl (T75 flasks) or 100 μl (6-well plates) SDS-PAGE sample buffer, and collected into 1.5 ml microcentrifuge tubes. • 5.
Two days before compound addition 6-well plates were seeded at a density of 75,000 cells/well. On the day of compound addition media was replaced with 3 ml fresh media containing compounds at different concentration. Fifteen hours after compound addition cells in each well were lysed with 0.2 ml extraction buffer (SDS-PAGE sample buffer containing […] and protease inhibitors) and extracts were collected.
Compounds (10 μM) were added to hTM cells cultured in 60 mm plates and cell extracts collected after […]. Cells were lysed with 0.2 ml lysis buffer and 20 μl extract was loaded in each lane (FIG. 7).

ROCK1 = ROCK1 (Homo sapiens (Human), UniProt Q13464); assay: ROCK1 ADP-Glo kinase enzyme inhibition assay; format: biochemical
Procedure: (§1) We measured ROCK and PKA kinase enzyme activity inhibition by compounds using commercially available ROCK1 (Promega Corporation, cat #V9581), ROCK2 (Promega, cat #V4045), and PKA kinase (Promega, cat #V4247) ADP-Glo™ assay kits. ADP-Glo™ Kinase Assay is a luminescent ADP detection assay that provides a homogeneous method to measure kinase activity by quantifying the amount of ADP produced during a kinase reaction. The assay is performed in two steps. First, after the kinase reaction, an equal volume of ADP-Glo™ Reagent is added to terminate the kinase reaction and deplete the remaining ATP. Second, the Kinase Detection Reagent is added to simultaneously convert ADP to ATP and allow the newly synthesized ATP to be measured using a luciferase/luciferin reaction. The light generated is measured using a luminometer. A complete protocol is included with the kits and is also available at the Promega website. The assay is briefly described below. • 1. Diluted enzyme, substrate, ATP, and compounds (inhibitors) in Kinase Buffer (40 mM Tris, 7.5, 20 mM MgCl2, 0.1 mg/ml BSA, 50 μM DTT). • 2. Added 1 μl of inhibitor, 2 μl of enzyme and 2 μl of substrate/ATP mix to the wells of 384-well low volume nonbinding assay plate A series of three-fold dilution of inhibitor was prepared and assayed for each inhibitor. • 3. Incubated at room temperature for 60 minutes. • 4. Added 5 μl of ADP-Glo™ Reagent. • 5. Incubated at room temperature for 60 minutes. • 6. Added 10 μl of Kinase Detection Reagent • 7. Incubated at room temperature for 30 minutes.
(§2) Recorded luminescence (Integration time 1 second) using a plate-based luminometer.
Calculated Percent Enzyme Activity: First subtract the signal of the negative control (no enzyme and no inhibitor) from each sample's signal. Then use the mean relative light units (RLU) values for the 0% kinase activity (neither inhibitor nor enzyme) and the 100% kinase activity (no compound) to calculate the other percent enzyme activities remaining in the presence of the different dilutions of inhibitor. […]

MDR1 = assay: MDR1-MDCK Permeability; format: in vitro ADME; conditions: dog
Procedure: (§3) MDR1-MDCK Permeability. Experiment was conducted by Absorption Systems. MDR1-MDCK cell monolayers were grown to confluence on collagen-coated, microporous membranes in 12-well assay plates. The permeability assay buffer was Hanks' balanced salt solution containing 10 mM HEPES and 15 mM glucose at a pH of 7.4. The buffer in the receiver chamber also contained 1% bovine serum albumin. The dosing solution concentration was 5 μM of test article in the assay buffer. Cell monolayers were dosed on the apical side (A-to-B) or basolateral side (B-to-A) and incubated at 37° C. with 5% CO2 in a humidified incubator. Samples were taken from the donor and receiver chambers at 120 minutes. Each determination was performed in duplicate. The flux of lucifer yellow was also measured post experimentally for each monolayer to ensure no damage was inflicted to the cell monolayers during the flux period. […] Permeability calculations were performed as per Absorption Systems protocol, Table 24.

[4] = test system: MDR1-MDCK cell monolayers; assay: MDR1-MDCK Permeability; format: in vitro ADME; conditions: MDR1-MDCK
Procedure: as §3

Caco-2 cells = assay: Caco-2 Permeability; format: in vitro ADME; conditions: Caco-2
Procedure: as §3, with “Caco-2” for “MDR1-MDCK”, “Caco-2 cells (clone C2BBe1) were obtained from American Type Culture Collection (Manassas, VA). Cell” for “MDR1-MDCK cell”, “post-experimentally” for “post experimentally”, “23.” for “24.”

Caco-2 Permeability = format: in vitro ADME; conditions: human
Procedure: as §3, with “Caco-2” for “MDR1-MDCK”, “Caco-2 cells (clone C2BBe1) were obtained from American Type Culture Collection (Manassas, VA). Cell” for “MDR1-MDCK cell”, “post-experimentally” for “post experimentally”, “23.” for “24.”

PKA = PKA (Homo sapiens (Human), UniProt P17612); assay: PKA ADP-Glo kinase enzyme inhibition assay; format: biochemical; conditions: read-out: PKAIC50
Procedure: as §1, with “Added 1 μl of inhibitor, 2 μl of enzyme and 2 μl of substrate/ATP mix to the wells of 384-well low volume nonbinding assay plate A series of three-fold dilution of inhibitor was prepared and assayed for each inhibitor. • 3. Incubated at room temperature for 60 minutes. • 4. Added 5 μl of ADP-Glo™ Reagent. • 5. Incubated at room temperature for 60 minutes. • 6. Added 10 μl of Kinase Detection Reagent • 7. Incubated at room temperature for 30 minutes.” left out
as §2
Calculated Percent Enzyme Activity: First subtract the signal of the negative control (no enzyme and no inhibitor) from each sample's signal. […]

ROCK2 = ROCK2 (Homo sapiens (Human), UniProt O75116); assay: ROCK2 ADP-Glo kinase enzyme inhibition assay; format: biochemical
Procedure: as §1, §2
Calculated Percent Enzyme Activity: First subtract the signal of the negative control (no enzyme and no inhibitor) from each sample's signal. Then use the mean relative light units (RLU) values for the 0% kinase activity (neither inhibitor nor enzyme) and the 100% kinase activity (no compound) to calculate the other percent enzyme activities remaining in the presence of the different dilutions of inhibitor.
Inhibitor stock solutions of 10 mM are made in DMSO and stored at −20° C. Dilutions were made in assay buffer immediately before use.

ROCK2, sequence (O75116 whole entry): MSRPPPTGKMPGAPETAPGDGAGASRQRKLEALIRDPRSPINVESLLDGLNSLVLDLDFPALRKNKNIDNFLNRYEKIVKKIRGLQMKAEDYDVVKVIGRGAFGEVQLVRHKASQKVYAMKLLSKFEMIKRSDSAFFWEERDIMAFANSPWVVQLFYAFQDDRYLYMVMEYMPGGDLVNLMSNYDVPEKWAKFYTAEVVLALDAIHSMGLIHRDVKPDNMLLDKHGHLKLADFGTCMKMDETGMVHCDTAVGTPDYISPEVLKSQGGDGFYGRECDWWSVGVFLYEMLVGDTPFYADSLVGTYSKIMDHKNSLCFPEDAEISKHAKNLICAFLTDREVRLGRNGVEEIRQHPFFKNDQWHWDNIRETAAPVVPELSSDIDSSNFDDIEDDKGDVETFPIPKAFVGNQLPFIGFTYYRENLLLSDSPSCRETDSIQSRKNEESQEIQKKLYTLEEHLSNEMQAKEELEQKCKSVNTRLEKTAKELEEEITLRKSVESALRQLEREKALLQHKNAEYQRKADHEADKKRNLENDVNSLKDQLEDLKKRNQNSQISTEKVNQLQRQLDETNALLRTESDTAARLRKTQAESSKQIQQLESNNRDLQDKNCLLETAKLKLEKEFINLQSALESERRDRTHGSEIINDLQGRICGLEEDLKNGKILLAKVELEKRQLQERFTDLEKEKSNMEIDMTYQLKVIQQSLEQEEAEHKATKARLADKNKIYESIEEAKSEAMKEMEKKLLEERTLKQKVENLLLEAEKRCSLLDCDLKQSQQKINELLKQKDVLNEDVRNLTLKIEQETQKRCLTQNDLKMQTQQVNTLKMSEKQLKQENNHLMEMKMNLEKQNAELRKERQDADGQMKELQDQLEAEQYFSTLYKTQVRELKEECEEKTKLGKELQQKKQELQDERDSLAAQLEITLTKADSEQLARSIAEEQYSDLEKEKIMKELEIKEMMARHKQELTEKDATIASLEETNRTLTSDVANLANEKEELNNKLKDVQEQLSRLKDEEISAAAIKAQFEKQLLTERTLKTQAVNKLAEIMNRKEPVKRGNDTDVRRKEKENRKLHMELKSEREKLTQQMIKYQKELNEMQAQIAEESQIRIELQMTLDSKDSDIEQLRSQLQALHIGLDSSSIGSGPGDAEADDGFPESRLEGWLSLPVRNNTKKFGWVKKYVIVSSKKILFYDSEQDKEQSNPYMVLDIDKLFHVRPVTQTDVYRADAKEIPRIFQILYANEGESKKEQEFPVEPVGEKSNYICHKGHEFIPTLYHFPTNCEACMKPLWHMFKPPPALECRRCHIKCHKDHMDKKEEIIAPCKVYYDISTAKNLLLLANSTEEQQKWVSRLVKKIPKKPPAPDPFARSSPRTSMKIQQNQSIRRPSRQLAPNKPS
ROCK1, sequence (Q13464 whole entry): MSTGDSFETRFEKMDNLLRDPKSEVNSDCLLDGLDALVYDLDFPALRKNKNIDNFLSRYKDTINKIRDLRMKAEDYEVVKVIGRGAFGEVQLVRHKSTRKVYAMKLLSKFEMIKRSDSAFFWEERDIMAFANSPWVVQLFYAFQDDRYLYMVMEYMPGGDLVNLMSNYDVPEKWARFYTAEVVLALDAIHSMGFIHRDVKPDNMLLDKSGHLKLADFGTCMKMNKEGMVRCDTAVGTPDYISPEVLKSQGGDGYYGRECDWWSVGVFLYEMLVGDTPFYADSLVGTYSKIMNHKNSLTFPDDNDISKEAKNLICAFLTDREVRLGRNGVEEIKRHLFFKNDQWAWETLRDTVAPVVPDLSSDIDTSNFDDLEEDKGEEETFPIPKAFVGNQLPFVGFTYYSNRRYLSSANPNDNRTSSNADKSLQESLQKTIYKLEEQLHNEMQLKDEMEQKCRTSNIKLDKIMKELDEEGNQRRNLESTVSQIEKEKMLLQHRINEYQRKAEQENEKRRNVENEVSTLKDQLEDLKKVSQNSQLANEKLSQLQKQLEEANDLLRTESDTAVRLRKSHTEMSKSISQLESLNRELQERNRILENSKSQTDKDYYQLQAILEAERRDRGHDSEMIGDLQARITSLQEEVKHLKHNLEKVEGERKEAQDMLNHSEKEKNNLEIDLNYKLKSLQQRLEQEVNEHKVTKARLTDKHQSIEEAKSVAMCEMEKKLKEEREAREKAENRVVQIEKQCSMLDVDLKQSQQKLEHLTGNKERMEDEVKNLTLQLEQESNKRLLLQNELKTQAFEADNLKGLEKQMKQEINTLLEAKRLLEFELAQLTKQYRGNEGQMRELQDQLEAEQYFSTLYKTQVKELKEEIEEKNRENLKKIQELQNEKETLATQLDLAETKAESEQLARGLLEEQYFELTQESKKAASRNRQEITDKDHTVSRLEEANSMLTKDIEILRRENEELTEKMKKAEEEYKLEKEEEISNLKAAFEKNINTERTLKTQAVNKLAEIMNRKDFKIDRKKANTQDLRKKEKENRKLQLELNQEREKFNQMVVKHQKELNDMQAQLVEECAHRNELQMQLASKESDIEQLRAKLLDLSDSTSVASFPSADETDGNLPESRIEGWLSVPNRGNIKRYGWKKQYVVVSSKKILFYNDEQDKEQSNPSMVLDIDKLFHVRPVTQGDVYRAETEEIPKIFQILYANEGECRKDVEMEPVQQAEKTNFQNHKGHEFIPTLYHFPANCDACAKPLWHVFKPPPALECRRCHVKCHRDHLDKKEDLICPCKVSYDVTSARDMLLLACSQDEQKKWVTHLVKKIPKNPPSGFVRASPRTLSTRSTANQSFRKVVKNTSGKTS

Cc1ccc(C(=O)OCc2ccc([C@@H](CN)C(=O)Nc3ccc4cnccc4c3)cc2)c(C)c1.Cl.Cl [Netarsudil.2HCl]
Cytotoxicity / membrane integrity (in words) (primary hTM cells [1]): concentration dependent
reduction in viability (primary hTM cells [2]; 1.11 μM): 10%
Cell viability compared to DMSO controls (primary hTM cells [2]; within 24 h): < 2%
Cell viability compared to DMSO controls (primary hTM cells [2]; within 48 h): < 0.1%
Cell viability (primary hTM cells [2]; 24 h): 53%
Cell viability (primary hTM cells [2]; 48 h): 15%
Cell viability (primary hTM cells [2]; 72 h): 9%
solubility in saline (Solubility in saline): ≤ 5 mg/mL
reduction in ATP levels (HEK293 cells; 2.5 μM): 80%
reduction in ATP levels (HEK293 cells; 25 μM): 96%
eye irritation classification [3]: irritating
mean score Iris [3]: 2.0
mean score conjunctival oedema (chemosis) [3]: 4.0
mean score conjunctival redness [3]: 3.0
mean score corneal opacity [3]: 3.0
hTM cell morphology (hTM cells; 10 μM): became small and round
hTM cell morphology (hTM cells; […] and 3.3 μM): started contracting and detaching from plate
cellular morphological changes (hTM cells; hTM cells, 30, 10, 3.33, or 1.11 μM, 24 hours): affected cell morphology starting at 1.11 μM showing cell contraction and becoming round and small at 10 μM
Inhibition of MYPT1 Thr853 phosphorylation (western blot) (Phospho-MYPT1 Thr853; 2.5 μM inhibitors): inhibited phosphorylation of MYPT1
Inhibition of MYPT1 Thr853 phosphorylation (western blot) (Phospho-MYPT1 Thr853; 10 μM inhibitors, 7 hours): completely inhibited MYPT1 phosphorylation
Amount of protein in lane (toxicity) (Phospho-MYPT1 Thr853; 10 μM, fifteen hours): much lower amount of protein because of toxicity

Cl.Cl.NCC(C(=O)Nc1ccc2cnccc2c1)c1ccc(B(O)O)cc1 (centres unmarked) [Compound 10]
IC50 (ROCK1; average of two lots of compound 10 and compound 10.2HCl, read-out: average IC50 estimate against ROCK1): 0.084 µM
IC50 (ROCK1; read-out: ROCK1 IC50): 0.137 µM and 0.062 µM
recovery at 120 min, 5 μM (MDR1; MDCK-MDR1, pH 7.4, A to B): 95.5%
Papp at 120 min, 5 μM (MDR1; MDCK-MDR1, pH 7.4, A to B, read-out: Papp Avg): < 0.566 nm/s
Papp at 120 min, 5 μM (MDR1; MDCK-MDR1, pH 7.4, A to B, read-out: Papp R1): < 0.566 nm/s
Papp at 120 min, 5 μM (MDR1; MDCK-MDR1, pH 7.4, A to B, read-out: Papp R2): < 0.566 nm/s
recovery at 120 min, 5 μM (MDR1; MDCK-MDR1, pH 7.4, B to A): 91.1%
Papp at 120 min, 5 μM (MDR1; MDCK-MDR1, pH 7.4, B to A, read-out: Papp Avg): < 0.772 nm/s
Papp at 120 min, 5 μM (MDR1; MDCK-MDR1, pH 7.4, B to A, read-out: Papp R2): < 0.772 nm/s
Brain Penetration Classification [4]: low
Absorption Potential Classification (Caco-2 cells): low (Papp(A to B) < 1 × 10^−6 cm/s: low)
Significant Efflux (Caco-2 cells): No
efflux ratio at 120 min, 5 μM (Caco-2 Permeability; Caco-2, pH 7.4): 2.58
recovery at 120 min, 5 μM (Caco-2 Permeability; Caco-2, pH 7.4, A to B): 108%
Papp at 120 min, 5 μM (Caco-2 Permeability; Caco-2, pH 7.4, A to B, read-out: Papp Avg): 1.92 nm/s
Papp at 120 min, 5 μM (Caco-2 Permeability; Caco-2, pH 7.4, A to B, read-out: Papp R1): 2.09 nm/s
Papp at 120 min, 5 μM (Caco-2 Permeability; Caco-2, pH 7.4, A to B, read-out: Papp R2): 1.76 nm/s
recovery at 120 min, 5 μM (Caco-2 Permeability; Caco-2, pH 7.4, B to A): 103%
Papp at 120 min, 5 μM (Caco-2 Permeability; Caco-2, pH 7.4, B to A, read-out: Papp Avg): 4.96 nm/s
Papp at 120 min, 5 μM (Caco-2 Permeability; Caco-2, pH 7.4, B to A, read-out: Papp R1): 5.65 nm/s
Papp at 120 min, 5 μM (Caco-2 Permeability; Caco-2, pH 7.4, B to A, read-out: Papp R2): 4.26 nm/s
IC50 (PKA): 0.052 µM
IC50 (ROCK2; Exp #1, read-out: ROCK2 IC50(Exp #1)): 0.027 µM
IC50 (ROCK2; Exp #2, read-out: ROCK2 IC50(Exp #2)): 0.026 µM
IC50 (ROCK2; Exp #3, read-out: ROCK2 IC50(Exp #3)): 0.026 µM and 0.015 µM
IC50 (ROCK2; average of two lots of compound 10 and compound 10.2HCl, read-out: average IC50 estimate against ROCK2): 0.025 µM

Source: patent publication US12479866B2, “Boron-containing rho kinase inhibitors” (Percipiad, Inc., priority 2019, dated 2025)
